In patent US20260285850A1, “SUBSTITUTED OXAZOLIDINONES AND IMIDAZOLINONES AS HERBICIDES” (FMC CORPORATION, priority 2023, published 2026):

Assays:
Assay type in all cases: in vivo
rice (Oryza sativa) = test: Test B flooded paddy test, visual plant response rating 0-100; conditions: 250 g ai/ha, Flood, applied to paddy water, evaluated after 13 days
Outline: (§1)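 Each species was raised to two leaves before flooding to a 3 cm depth and dosing the water with compound. Injury was assessed by eye after 13 days under greenhouse conditions.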

[1] = tested on: ducksalad (Heteranthera limosa); test: as above; conditions: 250 g ai/ha, Flood, applied to paddy water, evaluated after 13 days
Outline: as §1

[2] = tested on: sedge, umbrella (small-flower umbrella sedge, Cyperus difformis); test: as above; conditions: 250 g ai/ha, Flood, applied to paddy water, evaluated after 13 days
Outline: as §1

[3] = tested on: barnyardgrass (Echinochloa crusgalli); test: as above; conditions: 250 g ai/ha, Flood, applied to paddy water, evaluated after 13 days
Outline: as §1

[4] = tested on: blackgrass (Alopecurus myosuroides); test: Test A preemergence soil spray, visual injury rating 0-100; conditions: 10 days
Outline: (§2)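 Plants in a loam and sand soil blend were treated with each test chemical, in a non-phytotoxic solvent system including surfactant, either sprayed on seeded soil before emergence or applied after emergence at the one- to two-leaf stage. Ten days later in the greenhouse, plants were compared with untreated controls and visually rated from 0 (no effect) to 100 (complete control).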

[5] = tested on: barnyardgrass (Echinochloa crus-galli); test: as above; conditions: 10 days
Outline: as §2

[6] = tested on: ryegrass, Italian (italian ryegrass, Lolium multiflorum); test: as above; conditions: 10 days
Outline: as §2

[7] = tested on: wheat (Triticum aestivum); test: as above; conditions: 10 days
Outline: as §2

kochia (Bassia scoparia) [8] = test: as above; conditions: 10 days
Outline: as §2

corn (Zea mays) [9] = test: as above; conditions: 10 days
Outline: as §2

[10] = tested on: ragweed (common ragweed, Ambrosia artemisiifolia); test: as above; conditions: 10 days
Outline: as §2

[11] = tested on: oat, wild (wild oat, Avena fatua); test: as above; conditions: 10 days
Outline: as §2

[12] = tested on: palmer (palmer amaranth, palmer pigweed, Amaranthus palmeri); test: as above; conditions: 10 days
Outline: as §2

soybean (Glycine max) [13] = test: as above; conditions: 10 days
Outline: as §2

[14] = tested on: green foxtail (Setaria viridis); test: as above; conditions: 10 days
Outline: as §2

[15] = tested on: blackgrass (Alopecurus myosuroides); test: Test A postemergence application, visual injury rating 0-100
Outline: as §2

[16] = tested on: galium (catchweed bedstraw, Galium aparine); test: as above; conditions: Postemergence, 16 g ai/ha, greenhouse 10 days; 0 no effect, 100 complete control
Outline: as §2

[17] = tested on: barnyardgrass (Echinochloa crus-galli); test: as above
Outline: as §2

[18] = tested on: ryegrass, Italian (italian ryegrass, Lolium multiflorum); test: as above
Outline: as §2

[19] = tested on: wheat (Triticum aestivum); test: as above
Outline: as §2

kochia (Bassia scoparia) [20] = test: as above
Outline: as §2

corn (Zea mays) [21] = test: as above
Outline: as §2

[22] = tested on: horseweed (Erigeron canadensis); test: as above
Outline: as §2

[23] = tested on: ragweed (common ragweed, Ambrosia artemisiifolia); test: as above
Outline: as §2

[24] = tested on: oat, wild (wild oat, Avena fatua); test: as above
Outline: as §2

[25] = tested on: palmer (palmer amaranth, palmer pigweed, Amaranthus palmeri); test: as above
Outline: as §2

soybean (Glycine max) [26] = test: as above
Outline: as §2

[27] = tested on: green foxtail (Setaria viridis); test: as above
Outline: as §2

[28] = 62 g ai/ha, 0 = no effect, 100 = complete control
[29] = 62 g ai/ha, postemergence, 10 days, 0 = no effect, 100 = complete control
[30] = Postemergence, 16 g ai/ha, greenhouse 10 days, 0 no effect, 100 complete control

## COC(=O)C1=CCC(NC(=O)C2(C)CN(c3cc(Cl)cc(Cl)c3)C(=O)O2)C1 (stereo not drawn) [Compound 149]
Rice (Oryza sativa)
  Plant response rating, Rice (0 to 100 scale, 0 is no effect and 100 is complete control): 90
[1]
  Plant response rating, Ducksalad (0 to 100 scale, 0 is no effect and 100 is complete control): 95
[2]
  Plant response rating, Sedge, Umbrella (0 to 100 scale, 0 is no effect and 100 is complete control): 95
[3]
  Plant response rating, Barnyardgrass (0 to 100 scale, 0 is no effect and 100 is complete control): 95
[4]; 16 g ai/ha, 0 to 100 scale
  Blackgrass plant response rating: 0
[4]; [28]
  Blackgrass plant response rating (0-100): 0
[5]; 16 g ai/ha, 0 to 100 scale
  Barnyardgrass plant response rating: 60
[5]; [28]
  Barnyardgrass plant response rating (0-100): 90
[6]; 16 g ai/ha, 0 to 100 scale
  Ryegrass, Italian plant response rating: 20
[6]; [28]
  Ryegrass, Italian plant response rating (0-100): 80
[7]; 16 g ai/ha, 0 to 100 scale
  Wheat plant response rating: 20
[7]; [28]
  Wheat plant response rating (0-100): 70
Kochia (Bassia scoparia) [8]; 16 g ai/ha, 0 to 100 scale
  Kochia plant response rating: 0
Kochia (Bassia scoparia) [8]; [28]
  Kochia plant response rating (0-100): 50
Corn (Zea mays) [9]; 16 g ai/ha, 0 to 100 scale
  Corn plant response rating: 0
Corn (Zea mays) [9]; [28]
  Corn plant response rating (0-100): 30
[10]; 16 g ai/ha, 0 to 100 scale
  Ragweed plant response rating: 0
[10]; [28]
  Ragweed plant response rating (0-100): 30
[11]; 16 g ai/ha, 0 to 100 scale
  Oat, Wild plant response rating: 0
[11]; [28]
  Oat, Wild plant response rating (0-100): 20
[12]; 16 g ai/ha, 0 to 100 scale
  Pigweed, Palmer plant response rating: 90
[12]; [28]
  Pigweed, Palmer plant response rating (0-100): 100
Soybean (Glycine max) [13]; 16 g ai/ha, 0 to 100 scale
  Soybean plant response rating: 0
Soybean (Glycine max) [13]; [28]
  Soybean plant response rating (0-100): 0
[14]; 16 g ai/ha, 0 to 100 scale
  Foxtail, Green plant response rating: 30
[14]; [28]
  Foxtail, Green plant response rating (0-100): 90
[15]; [29]
  Blackgrass plant response rating (0-100): 90
[15]; [30]
  Blackgrass plant response rating (0 to 100 scale): 90
[16]
  Galium plant response rating (0 to 100 scale): 60
[17]; [29]
  Barnyardgrass plant response rating (0-100): 100
[17]; [30]
  Barnyardgrass plant response rating (0 to 100 scale): 100
[18]; [29]
  Ryegrass, Italian plant response rating (0-100): 80
[18]; [30]
  Ryegrass, Italian plant response rating (0 to 100 scale): 80
[19]; [29]
  Wheat plant response rating (0-100): 90
[19]; [30]
  Wheat plant response rating (0 to 100 scale): 80
Kochia (Bassia scoparia) [20]; [29]
  Kochia plant response rating (0-100): 90
Kochia (Bassia scoparia) [20]; [30]
  Kochia plant response rating (0 to 100 scale): 80
Corn (Zea mays) [21]; [29]
  Corn plant response rating (0-100): 100
Corn (Zea mays) [21]; [30]
  Corn plant response rating (0 to 100 scale): 100
[22]; [29]
  Horseweed plant response rating (0-100): 70
[22]; [30]
  Horseweed plant response rating (0 to 100 scale): 50
[23]; [29]
  Ragweed plant response rating (0-100): 50
[23]; [30]
  Ragweed plant response rating (0 to 100 scale): 20
[24]; [29]
  Oat, Wild plant response rating (0-100): 90
[24]; [30]
  Oat, Wild plant response rating (0 to 100 scale): 30
[25]; [29]
  Pigweed, Palmer plant response rating (0-100): 90
[25]; [30]
  Pigweed, Palmer plant response rating (0 to 100 scale): 90
Soybean (Glycine max) [26]; [29]
  Soybean plant response rating (0-100): 90
Soybean (Glycine max) [26]; [30]
  Soybean plant response rating (0 to 100 scale): 60
[27]; [29]
  Foxtail, Green plant response rating (0-100): 90
[27]; [30]
  Foxtail, Green plant response rating (0 to 100 scale): 90
